Values quoted from earlier work, collected in patent EP2932963A1, “Stable pharmaceutical dosage forms comprising Levothyroxine sodium” (Uni-Pharma Kleon Tsetis Pharmaceutical Laboratories S.A., priority 2014, dated 2015).
Read-outs that look alike come from different tables or passages of the source.

Assays:
[1] = dependence on pH

SMILES: N[C@@H](Cc1cc(I)c(Oc2cc(I)c(O)c(I)c2)c(I)c1)C(=O)O [Levothyroxine]
- aqueous solubility [1]: reduces from pH 1 to 3 and increases above pH 7
- pKa (amino group): 9.96
- pKa (carboxyl group): 2.4
- pKa (phenolic group): 6.87
